Data on 20 compounds can be found in patent US5523315A, “N-(hydroxyethyl)butanediamide derivatives” (Bio-Mega/Boehringer Ingelheim Research Inc., priority 1993, dated 1996).

Each structure is given as a SMILES string.

This assay has as its target T1, human renin (Homo sapiens, UniProt P00797).
T1 construct: A human plasma pool is used as the source of both the substrate (angiotensinogen) and the enzyme (renin); from tissue; host or cells: pooled human plasma
T1 sequence (P00797 67-406): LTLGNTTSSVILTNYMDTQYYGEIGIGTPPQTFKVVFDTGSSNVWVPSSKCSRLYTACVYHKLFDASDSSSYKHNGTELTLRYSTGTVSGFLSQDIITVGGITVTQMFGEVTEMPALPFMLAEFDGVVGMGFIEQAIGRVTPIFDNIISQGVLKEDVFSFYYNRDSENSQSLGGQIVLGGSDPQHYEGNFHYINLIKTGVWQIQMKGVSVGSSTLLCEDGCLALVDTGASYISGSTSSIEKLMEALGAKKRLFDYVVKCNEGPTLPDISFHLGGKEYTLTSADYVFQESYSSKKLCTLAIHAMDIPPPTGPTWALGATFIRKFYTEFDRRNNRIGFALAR
The experiment in a line: plasma renin assay (inhibition of human renin; angiotensin I generated, measured by radioimmunoassay). The conditions noted are these: human plasma pool, pH 6.0, 2 h incubation at 37°. The format is biochemical. As to the method:
The assay is performed as follows: The test compound (i.e. the inhibitor) is dissolved in dimethylsulfoxide (1 mM stock solution) and diluted with an aqueous buffer solution of 270 mM 2-(N-morpholino)ethanesulfonic acid and 1% human serum albumin (pH 5.85, also containing dimercaprol and 8-hydroxyquinoline sulfate in accordance with the instructions of the RIA kit noted below) to give an assay mixture in which the final dimethylsulfoxide content is 1% (v/v).
A human plasma pool is used as the source of both the substrate (angiotensinogen) and the enzyme (renin). The reaction is initiated by the addition of 50 μL of human plasma pool to 50 μL of various concentrations of inhibitor in the 1% dimethylsulfoxide assay buffer. The plasma renin activity is measured by the amount of angiotensin I generated at pH 6.0 following a 2 h incubation at 37°.
Quantitation of angiotensin I is performed by radioimmunoassay (RIA kit from New England Nuclear-Dupont, Mississauga, ON, Canada). The enzymatic activity of renin is expressed in ng of angiotensin I generated (/mL/2 h). The extent of inhibition of the reaction is determined from the amount of angiotensin I generated in reference to a control prepared without inhibitor. Nonlinear regression analysis is used to calculate the IC50 values, i.e. the molar concentration of the test compound required to cause a 50% inhibition of the enzyme activity.
For the compound `CC(C)C[C@H](O)[C@H](O)[C@H](CC1CCCCC1)NC(=O)[C@@H](CC(=O)N(CC(=O)N(C)CCc1ccccn1)CC1(O)CCCCC1)Cc1csc(N)n1` [Compound 49, N^4-[(1-hydroxycyclohexyl)methyl]-N^4 -{2-{methyl[2-(2-pyridinyl)ethyl]amino}-2-oxoethyl}-N^1-[1(S)-(cyclohexylmethyl)-2(R),3(S)-dihydroxy-5-methylhexyl]-2(R)-[(2-amino-4-thiazolyl)methyl]butanediamide], the concentration for half-maximal inhibition (IC50) (commonly the midpoint of a concentration-inhibition curve) was 2 nM.
The compound `CC(C)C[C@H](O)[C@H](O)[C@H](CC1CCCCC1)NC(=O)[C@@H](CC(=O)N(CCO)CC1(O)CCCCC1)CC1CC1` [Compound 5, N^4-[(1-hydroxycyclohexyl)methyl]-N^4-(2-hydroxyethyl)-N^1-[1(S)-(cyclohexylmethyl)-2(R),3(S)-dihydroxy-5-methylhexyl]-2(R)-(cyclopropylmethyl)butanediamide] showed an IC50 of 35 nM.
The same measure for `CC(C)C[C@H](O)[C@H](O)[C@H](CC1CCCCC1)NC(=O)[C@@H](CC(=O)NC[C@H](O)C1CCCCC1)CC1CC1` [Compound 20 (R), N^4-(R)-(2-cyclohexyl-2-hydroxyethyl)-N^1-[1(S)-(cyclohexylmethyl)-2(R),3(S)-dihydroxy-5-methylhexyl]-2(R)-(cyclopropylmethyl)butanediamide]: 115 nM.
The compound `CC(C)C[C@H](O)[C@H](O)[C@H](CC1CCCCC1)NC(=O)[C@@H](CC(=O)N(CC(=O)N(C)C)CC1(O)CCCCC1)Cc1cccnc1` [Compound 52, N^4-[(1-hydroxycyclohexyl)methyl]-N^4-[2-(dimethylamino)-2-oxoethyl]-N^1-[1(S)-(cyclohexylmethyl)-2(R),3(S)-dihydroxy-5-methylhexyl]-2(R)-(3-pyridinylmethyl)butanediamide] gave a half-maximal inhibitory concentration (IC50) of 33 nM.
`CC(C)C[C@H](O)[C@H](O)[C@H](CC1CCCCC1)NC(=O)[C@@H](CC(=O)N(Cc1ccncc1)CC1(O)CCCCC1)CC1CC1` [Compound 29] returned an IC50 of 31 nM.
Regarding `CC(C)C[C@H](O)[C@H](O)[C@H](CC1CCCCC1)NC(=O)[C@@H](CC(=O)N(Cc1ccccc1)C[C@H](O)c1ccccc1)CC1CC1` [Compound 11, N^4-benzyl-N^4-(R)-(2-hydroxy-2-phenylethyl)-N^1-[1(S)-(cyclohexylmethyl)-2(R),3(S)-dihydroxy-5-methylhexyl]-2(R)-(cyclopropylmethyl)butanediamide], half-maximal inhibition (IC50) was put at 110 nM.
Take `CC(C)C[C@H](O)[C@H](O)[C@H](CC1CCCCC1)NC(=O)[C@@H](CC(=O)N(Cc1ccccc1)CC(C)(C)O)CC1CC1` [Compound 21, N^4-benzyl-N^4-(2-hydroxy-2-methylpropyl)-N^1-[1(S)-(cyclohexylmethyl)-2(R),3(S)-dihydroxy-5-methylhexyl]-2(R)-(cyclopropylmethyl)butanediamide]: the IC50 amounted to 130 nM.
`COC1(CN(CC(=O)N(C)CCc2ccccn2)C(=O)C[C@@H](Cc2csc(N)n2)C(=O)N[C@@H](CC2CCCCC2)[C@@H](O)[C@@H](O)CC(C)C)CCCCC1` [Compound 62, N^4-[(1-methoxycyclohexyl)methyl]-N^4 -{2-{methyl[2-(2-pyridinyl)ethyl]amino}-2-oxoethyl}-N^1-[1(S)-(cyclohexylmethyl)-2(R),3(S)-dihydroxy-5-methylhexyl]-2(R)-[(2-amino-4-thiazolyl)methyl]butanediamide] had a concentration for half-maximal inhibition (IC50) of 2 nM.
With `CC(C)C[C@H](O)[C@H](O)[C@H](CC1CCCCC1)NC(=O)[C@@H](CC(=O)N(CC(=O)N(C)C)CC1(O)CCCCCC1)Cc1csc(N)n1` [Compound 53, N^4-[(1-hydroxycycloheptyl)methyl]-N^4-[2-(dimethylamino)-2-oxoethyl]-N^1-[1(S)-(cyclohexylmethyl)-2(R),3(S)-dihydroxy-5-methylhexyl]-2(R)-[(2-amino-4-thiazolyl)methyl]-butanediamide] the figure was 2 nM; with `CC(C)C[C@H](O)[C@H](O)[C@H](CC1CCCCC1)NC(=O)[C@@H](CC(=O)N(Cc1ccccn1)CC1(O)CCC(=O)CC1)CC1CC1` [Compound 19, N^4-[(1-hydroxy-4-oxocyclohexyl)methyl]-N^4-(2-pyridinylmethyl)-N^1-[1(S)-(cyclohexylmethyl)-2(R),3(S)-dihydroxy-5-methylhexyl]-2(R)-(cyclopropylmethyl)butanediamide], 100 nM; with `CC(C)C[C@H](O)[C@H](O)[C@H](CC1CCCCC1)NC(=O)[C@@H](CC(=O)N(Cc1ncc[nH]1)CC1(O)CCCCC1)CC1CC1` [Compound 15, N^4-[(1-hydroxycyclohexyl)methyl]-N^4-(1H-imidazol-2-ylmethyl)-N^1-[1(S)-(cyclohexylmethyl)-2(R),3(S)-dihydroxy-5-methylhexyl]-2(R)-(cyclopropylmethyl)butanediamide], 80 nM.
Regarding `CC(C)C[C@H](O)[C@H](O)[C@H](CC1CCCCC1)NC(=O)[C@@H](CC(=O)N(CC1CCCCC1)CC1(O)CCCCC1)CC1CC1` [Compound 25, N^4-(cyclohexylmethyl)-N^4-[(1-hydroxycyclohexyl)methyl]-N^1-[1(S)-(cyclohexylmethyl)-2(R),3(S)-dihydroxy-5-methylhexyl]2(R)-(cyclopropylmethyl)butanediamide], the IC50 was 79 nM.
In the case of `CC(C)C[C@H](O)[C@H](O)[C@H](CC1CCCCC1)NC(=O)[C@@H](CC(=O)NCC(O)c1ccccn1)CC1CC1` (mixture of isomers) [Compound 22, N^4-[2(R,S)-hydroxy-2-(2-pyridinyl)ethyl]-N^1-[1(S)-(cyclohexylmethyl)-2(R),3(S)-dihydroxy-5-methylhexyl]-2(R)-(cyclopropylmethyl)butanediamide], the IC50 stood at 170 nM.
`CC(C)C[C@H](O)[C@H](O)[C@H](CC1CCCCC1)NC(=O)[C@@H](CC(=O)N(CC1CCCCC1)CC(C)(C)O)Cc1cscn1` [Compound 36, N^4-(cyclohexylmethyl)-N^4-(2-hydroxy-2-methylpropyl)-N^1-[1(S)-(cyclohexylmethyl)-2(R),3(S)-dihydroxy-5-methylhexyl]-2(R)-(4-thiazolylmethyl)butanediamide] returned an IC50 of 7.1 nM.
`CC(C)C[C@H](O)[C@H](O)[C@H](CC1CCCCC1)NC(=O)[C@@H](CC(=O)N(CCO)CC1CCCCC1)CC1CC1` [Compound 31, N^4-(cyclohexylmethyl)-N^4-(2-hydroxyethyl)-N^1-[1(S)-(cyclohexylmethyl)-2(R),3(S)-dihydroxy-5-methylhexyl]-2(R)-(cyclopropylmethyl)butanediamide]: it took 100 nM to reach half-maximal inhibition (IC50).
`CC(C)C[C@H](O)[C@H](O)[C@H](CC1CCCCC1)NC(=O)[C@@H](CC(=O)NCC(O)c1ccccc1)CC1CC1` (stereo partly drawn) [Compound 10, N^4-(R,S)-(2-hydroxy-2-phenylethyl)-N^1-[1(S)-(cyclohexylmethyl)-2(R),3(S)-dihydroxy-5-methylhexyl]-2(R)-(cyclopropylmethyl)butanediamide] registered an IC50 of 74 nM.
In turn, `CC(C)C[C@H](O)[C@H](O)[C@H](CC1CCCCC1)NC(=O)[C@@H](CC(=O)N(CCc1ccccn1)CC1(O)CCCCC1)CC1CC1` [Compound 7, N^4-[(1-hydroxycyclohexyl)methyl]-N^4-[2-(2-pyridinyl)ethyl]-N^1-[1(S)-(cyclohexylmethyl)-2(R),3(S)-dihydroxy-5-methylhexyl]-2(R)-(cyclopropylmethyl)butanediamide] returned a half-maximal inhibitory concentration (IC50) of 53 nM.
`CCC(CC)CN(CC(C)(C)O)C(=O)C[C@@H](Cc1csc(N)n1)C(=O)N[C@@H](CC1CCCCC1)[C@@H](O)[C@@H](O)CC(C)C` [Compound 58, N^4-(2-ethylbutyl)-N^4-(2-hydroxy-2-methylpropyl)-N^1-[1(S)-(cyclohexylmethyl)-2(R),3(S)-dihydroxy-5-methylhexyl]-2(R)-[(2-amino-4-thiazolyl)methyl]butanediamide] gave a concentration for half-maximal inhibition (IC50) of 15 nM.
As to `CC(C)C[C@H](O)[C@H](O)[C@H](CC1CCCCC1)NC(=O)[C@@H](CC(=O)N(CC(=O)N(C)C)CC1(O)CCCCCCC1)Cc1csc(N)n1` [Compound 56, N^4-[(1-hydroxycyclooctyl)methyl]-N^4-[2-(dimethylamino)-2-oxoethyl]-N^1-[1(S)-(cyclohexylmethyl)-2(R),3(S)-dihydroxy-5-methylhexyl]-2(R)-[(2-amino-4-thiazolyl)methyl]butanediamide], the IC50 was found to be 1 nM.
`CC(C)C[C@H](O)[C@H](O)[C@H](CC1CCCCC1)NC(=O)[C@@H](CC(=O)N(C)CC1(O)CCCCC1)CC1CC1` [Compound 6, N^4-[(1-hydroxycyclohexyl)methyl]-N^4-methyl-N^1-[1(S)-(cyclohexylmethyl)-2(R),3(S)-dihydroxy-5-methylhexyl]-2(R)-(cyclopropylmethyl)butanediamide]: half-maximal inhibition (IC50) was put at 38 nM.
